Data as given in ChEMBL document CHEMBL1126913, “A homologous series of permanently charged 1,4-dihydropyridines: novel probes designed to localize drug binding sites on ion channels” (J Med Chem, 1993).
pKi: −log10 of the molar value.

Biological target: Voltage-dependent L-type calcium channel subunit alpha-1C (Rattus norvegicus, UniProt P22002)
Assay: Inhibition of [3H](+)-PN200-110 binding to L-type calcium channel 1,4-DHP binding site of rat ventricular myocytes
Type: cell-based, Ventricular myocyte

Sequence of Voltage-dependent L-type calcium channel subunit alpha-1C (P22002 whole entry): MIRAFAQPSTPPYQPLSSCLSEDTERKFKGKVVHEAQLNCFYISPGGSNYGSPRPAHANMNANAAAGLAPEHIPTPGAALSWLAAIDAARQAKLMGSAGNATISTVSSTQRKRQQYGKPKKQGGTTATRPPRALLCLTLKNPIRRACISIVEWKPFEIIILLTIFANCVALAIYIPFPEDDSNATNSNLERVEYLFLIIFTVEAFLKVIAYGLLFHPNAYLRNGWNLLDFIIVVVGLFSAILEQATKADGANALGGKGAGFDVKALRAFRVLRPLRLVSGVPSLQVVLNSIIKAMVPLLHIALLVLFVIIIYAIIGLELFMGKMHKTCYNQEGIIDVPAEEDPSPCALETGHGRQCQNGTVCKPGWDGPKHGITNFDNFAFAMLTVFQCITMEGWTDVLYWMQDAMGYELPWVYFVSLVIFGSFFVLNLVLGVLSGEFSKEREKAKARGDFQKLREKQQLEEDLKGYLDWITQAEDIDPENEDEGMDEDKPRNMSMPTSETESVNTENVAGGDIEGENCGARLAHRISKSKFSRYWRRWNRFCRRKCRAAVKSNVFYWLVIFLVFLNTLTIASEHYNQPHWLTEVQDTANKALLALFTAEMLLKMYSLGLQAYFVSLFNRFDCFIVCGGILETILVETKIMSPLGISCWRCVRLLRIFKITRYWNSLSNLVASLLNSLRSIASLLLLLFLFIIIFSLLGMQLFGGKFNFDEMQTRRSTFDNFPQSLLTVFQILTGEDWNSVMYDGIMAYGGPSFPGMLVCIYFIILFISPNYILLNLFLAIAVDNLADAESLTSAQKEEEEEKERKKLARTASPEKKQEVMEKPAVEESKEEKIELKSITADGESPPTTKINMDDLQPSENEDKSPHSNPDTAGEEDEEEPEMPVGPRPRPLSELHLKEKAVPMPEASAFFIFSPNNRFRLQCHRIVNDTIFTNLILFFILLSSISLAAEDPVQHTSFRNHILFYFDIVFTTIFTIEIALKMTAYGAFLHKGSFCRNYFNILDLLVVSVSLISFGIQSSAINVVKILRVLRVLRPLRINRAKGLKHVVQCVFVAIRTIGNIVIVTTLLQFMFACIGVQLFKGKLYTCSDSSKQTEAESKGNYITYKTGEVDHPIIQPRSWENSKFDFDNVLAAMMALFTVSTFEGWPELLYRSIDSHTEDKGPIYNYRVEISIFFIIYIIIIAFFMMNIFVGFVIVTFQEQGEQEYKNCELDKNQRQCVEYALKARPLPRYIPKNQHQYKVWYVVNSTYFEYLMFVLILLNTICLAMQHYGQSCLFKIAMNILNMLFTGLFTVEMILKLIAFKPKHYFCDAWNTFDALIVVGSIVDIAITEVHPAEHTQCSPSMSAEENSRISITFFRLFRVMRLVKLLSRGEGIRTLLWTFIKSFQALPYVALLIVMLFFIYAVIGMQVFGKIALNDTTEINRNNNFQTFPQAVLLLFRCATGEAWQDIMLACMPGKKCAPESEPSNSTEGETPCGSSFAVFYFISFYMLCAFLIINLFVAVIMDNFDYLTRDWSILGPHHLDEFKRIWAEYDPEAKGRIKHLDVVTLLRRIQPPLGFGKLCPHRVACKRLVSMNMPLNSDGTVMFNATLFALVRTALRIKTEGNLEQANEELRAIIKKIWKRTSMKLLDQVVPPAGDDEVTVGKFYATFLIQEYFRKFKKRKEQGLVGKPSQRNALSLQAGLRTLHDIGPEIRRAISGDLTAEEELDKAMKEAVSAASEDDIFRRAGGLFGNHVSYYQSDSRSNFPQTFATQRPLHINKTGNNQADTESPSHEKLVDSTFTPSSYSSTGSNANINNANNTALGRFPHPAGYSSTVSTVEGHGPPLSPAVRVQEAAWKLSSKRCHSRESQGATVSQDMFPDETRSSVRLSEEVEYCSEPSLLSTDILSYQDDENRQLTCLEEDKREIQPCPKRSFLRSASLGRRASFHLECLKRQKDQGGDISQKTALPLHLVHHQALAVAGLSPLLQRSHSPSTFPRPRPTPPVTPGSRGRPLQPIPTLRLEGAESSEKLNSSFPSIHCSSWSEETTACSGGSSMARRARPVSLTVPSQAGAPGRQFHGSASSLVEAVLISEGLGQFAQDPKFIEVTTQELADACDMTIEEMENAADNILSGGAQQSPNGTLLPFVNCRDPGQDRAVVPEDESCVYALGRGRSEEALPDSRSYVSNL

pKi | SMILES
7.48 | COC(=O)C1=C(C)NC(C)=C(C(=O)OCC[N+](C)(C)C)C1c1ccccc1C(F)(F)F (configuration not stated)
7.80 | CCCCCCCCCCCCCCOC(=O)C1=C(C)NC(C)=C(C(=O)OC)C1c1ccccc1C(F)(F)F (configuration not stated)
